The record followed here is patent US10221178B2, “Purine inhibitors of human phosphatidylinositol 3-kinase delta” (MERCK SHARP & DOHME CORP., priority 2015, dated 2019).

Each structure is given as a SMILES string.

For one experiment, the target named is PI3Kalpha (Homo sapiens (Human), UniProt P42336). In words: HTRF PI3K biochemical assay, alpha isoform (selectivity versus PI3Kalpha). Conditions: relative ratio (PI3K-alpha IC50 value/PI3K-delta IC50 value); form screened: Neutral. The source says:
(§1) HTRF PI3K Biochemical Assay to Measure Intrinsic Potency of Compound Inhibitors
(§2) The PI3-Kinase biochemical assays were developed to measure the intrinsic potency and compound dependent inhibition of the alpha, beta, delta, and gamma PI3K isoform enzymes.
(§3) This assay was developed and further optimized from a kit produced by Upstate (Millipore catalog #33-047) and has been configured for HTS (high throughput screening) and SAR screening. Briefly, this procedure exploits the exquisite specificity and high affinity binding of enzyme reaction substrate phosphatidyl(3,4,5)triphosphate (PIP3) to the GRP1 pleckstrin homology (PH) domain to generate the signal. In the absence of PIP3, an HTRF (Homogeneous Time-Resolved Fluorescence energy transfer) complex is formed consisting of europium (Eu)-labeled anti-GST, GSTtagged GRP1-PH domain, biotin-PIP3 and streptavidin conjugated APC. The native PIP3 produced by PI3-Kinase activity disrupts in a competitive manner the biotin-PIP3 from the PH domain, resulting in the loss of energy transfer (HTRF complex) and a decrease in the signal. The format of this assay is the same for all 4 isoforms of PI3K; the differences lie in the concentration of enzyme used to achieve robust assay window. The alpha, beta, and delta assays are run at 0.5, 1, and 0.3 nM enzymes and the gamma assay is run at 5 nM enzyme. The ATP concentration is 100 uM in the alpha, beta, and delta assays and 50 uM ATP in the gamma assay. All reactions are run at 5 uM PIP2.
(§4) Compounds are serially diluted (3-fold in 100% DMSO) across a 384-well polypropylene source plated from column 3 to column 12 and column 13 to column 22, to yield 10 concentration dose response for each test compound. Columns 1, 2, 23 and 24 contain either only DMSO or pharmacological known control inhibitor. Once titrations are made, 2.5 nL of the compounds on 384 well plates are reformatted and transferred by acoustic dispense in quadruplicates to a 1536 assay plate (Greiner) to assay across all four PI3K isoform enzymes.
(§5) The PI3-Kinase biochemical assay was optimized using the HTRF kit provided by Upstate (Millipore). The assay kit contains six reagents: 1) 4× Reaction Buffer; 2) native PIP2 (substrate); 3) Stop (EDTA); 4) Detection Mix A (Streptavidin-APC); 5) Detection Mix B (Eu-labeled Anti-GST plus GST-tagged PH-domain); 6) Detection Mix C. In addition, the following items were obtained or purchased; PI3Kinase (alpha 14-602, beta 14-603, gamma 14-558 and delta 14-604 from Upstate; Millipore), dithiothreitol (Sigma, D-5545), Adenosine-5′ triphosphate (InVitrogen, Cat#AS001A), native PIP3 (PI(3,4,5)P3, diC8, H^+, CELLSIGNALS, INC. Cat #907) DMSO (Sigma, 472301).
PI3Kinase Reaction Buffer is prepared by dilution the stock 1:4 with de-ionized water. DTT, PIP2 and Biotin-PIP3 were added to 1536 assay plate at a final concentration of 5 mM, […] on the day of use. Enzyme addition and compound pre-incubation are initiated by the addition of 1.25 ul of PI3K (at twice its final concentration) in the 1× reaction buffer to all wells using a BioRaptor. Plates are incubated at RT for 15 minutes. Reactions are initiated by addition of 1.25 ul of 2× substrate solution (PIP2 and ATP in 1× reaction buffer) using BioRaptor. Plates are incubated in humidified chamber at RT for one hour. Reactions are quenched by addition of 0.625 uL of stop solution to all wells using the BioRaptor. The quenched reactions are then processed to detect product formation by adding 0.625 uL of Detection Solution to all wells using the BioRaptor (Detection mix C, Detection Mix A, and Detection Mix B combined together in an 18:1:1 ratio prepared 2 hours prior to use). Following a one hour incubation in the dark, the HTRF signal is measured on the Envision plate reader set for 330 nm excitation and dual emission detection at […]. […]
A general note: In TR-FRET formats the signal depends on donor and acceptor labels being close together.

The next experiment deals with PI3Kdelta (Homo sapiens (Human), UniProt O00329). In words: HTRF PI3K biochemical assay, delta isoform. As to conditions: 0.3 nM enzyme, 100 uM ATP, 5 uM PIP2, form screened: Neutral.
Text: as §1, §2, §3, §4, §5
PI3Kinase Reaction Buffer is prepared by dilution the stock 1:4 with de-ionized water. DTT, PIP2 and Biotin-PIP3 were added to 1536 assay plate at a final concentration of 5 mM, […] on the day of use. Enzyme addition and compound pre-incubation are initiated by the addition of 1.25 ul of PI3K (at twice its final concentration) in the 1× reaction buffer to all wells using a BioRaptor. Plates are incubated at RT for 15 minutes. Reactions are initiated by addition of 1.25 ul of 2× substrate solution (PIP2 and ATP in 1× reaction buffer) using BioRaptor. Plates are incubated in humidified chamber at RT for one hour. Reactions are quenched by addition of 0.625 uL of stop solution to all wells using the BioRaptor. The quenched reactions are then processed to detect product formation by adding 0.625 uL of Detection Solution to all wells using the BioRaptor (Detection mix C, Detection Mix A, and Detection Mix B combined together in an 18:1:1 ratio prepared 2 hours prior to use). Following a one hour incubation in the dark, the HTRF signal is measured on the Envision plate reader set for 330 nm excitation and dual emission detection at 620 nM (Eu) and 665 nM (APC).

PI3Kdelta, sequence (O00329 whole entry, canonical isoform): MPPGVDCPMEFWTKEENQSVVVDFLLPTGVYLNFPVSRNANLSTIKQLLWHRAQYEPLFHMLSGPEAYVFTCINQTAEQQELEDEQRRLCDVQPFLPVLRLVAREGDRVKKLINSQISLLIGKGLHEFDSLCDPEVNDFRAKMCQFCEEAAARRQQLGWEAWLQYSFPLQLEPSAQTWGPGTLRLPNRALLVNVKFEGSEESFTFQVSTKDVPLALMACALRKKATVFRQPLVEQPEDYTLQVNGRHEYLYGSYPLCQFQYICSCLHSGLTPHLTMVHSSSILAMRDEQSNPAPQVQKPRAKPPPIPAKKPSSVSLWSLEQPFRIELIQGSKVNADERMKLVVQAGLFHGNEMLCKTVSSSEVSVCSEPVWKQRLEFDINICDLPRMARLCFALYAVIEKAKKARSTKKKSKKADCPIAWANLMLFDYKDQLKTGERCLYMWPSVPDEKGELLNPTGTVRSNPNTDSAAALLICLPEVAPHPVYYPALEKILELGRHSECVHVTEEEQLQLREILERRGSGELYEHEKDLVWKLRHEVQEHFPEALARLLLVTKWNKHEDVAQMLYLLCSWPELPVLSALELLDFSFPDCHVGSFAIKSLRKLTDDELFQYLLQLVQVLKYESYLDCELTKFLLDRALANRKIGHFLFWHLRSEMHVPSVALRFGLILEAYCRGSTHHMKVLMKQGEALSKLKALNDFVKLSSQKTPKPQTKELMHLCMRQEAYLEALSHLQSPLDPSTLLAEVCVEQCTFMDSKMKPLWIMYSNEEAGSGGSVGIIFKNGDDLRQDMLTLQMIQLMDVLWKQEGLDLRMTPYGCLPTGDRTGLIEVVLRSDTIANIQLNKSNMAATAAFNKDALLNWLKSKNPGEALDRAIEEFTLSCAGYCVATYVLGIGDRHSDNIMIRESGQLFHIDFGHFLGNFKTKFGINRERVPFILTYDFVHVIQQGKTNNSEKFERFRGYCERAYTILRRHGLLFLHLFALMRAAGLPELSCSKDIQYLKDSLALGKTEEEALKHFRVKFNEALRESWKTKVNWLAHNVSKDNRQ
PI3Kdelta, sequence (P27986 whole entry partner, canonical isoform): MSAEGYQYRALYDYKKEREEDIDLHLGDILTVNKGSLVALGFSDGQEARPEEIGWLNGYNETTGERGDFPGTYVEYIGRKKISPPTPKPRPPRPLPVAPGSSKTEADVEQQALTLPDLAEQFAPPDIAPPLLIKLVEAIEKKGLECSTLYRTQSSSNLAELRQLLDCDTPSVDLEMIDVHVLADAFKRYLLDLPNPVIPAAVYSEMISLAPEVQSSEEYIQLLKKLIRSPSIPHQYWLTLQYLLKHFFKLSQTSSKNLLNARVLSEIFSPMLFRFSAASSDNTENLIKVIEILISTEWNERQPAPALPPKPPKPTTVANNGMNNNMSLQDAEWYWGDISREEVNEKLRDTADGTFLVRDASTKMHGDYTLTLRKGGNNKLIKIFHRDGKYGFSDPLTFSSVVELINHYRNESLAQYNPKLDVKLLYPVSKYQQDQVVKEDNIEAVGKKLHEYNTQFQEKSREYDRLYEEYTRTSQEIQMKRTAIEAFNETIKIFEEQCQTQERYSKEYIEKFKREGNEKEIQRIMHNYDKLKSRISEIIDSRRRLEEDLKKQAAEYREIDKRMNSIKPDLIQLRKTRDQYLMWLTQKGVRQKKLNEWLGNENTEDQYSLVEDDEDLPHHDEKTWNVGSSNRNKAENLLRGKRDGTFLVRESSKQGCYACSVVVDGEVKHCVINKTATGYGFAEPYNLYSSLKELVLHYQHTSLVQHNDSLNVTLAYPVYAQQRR
PI3Kalpha, sequence (P42336 whole entry, canonical isoform): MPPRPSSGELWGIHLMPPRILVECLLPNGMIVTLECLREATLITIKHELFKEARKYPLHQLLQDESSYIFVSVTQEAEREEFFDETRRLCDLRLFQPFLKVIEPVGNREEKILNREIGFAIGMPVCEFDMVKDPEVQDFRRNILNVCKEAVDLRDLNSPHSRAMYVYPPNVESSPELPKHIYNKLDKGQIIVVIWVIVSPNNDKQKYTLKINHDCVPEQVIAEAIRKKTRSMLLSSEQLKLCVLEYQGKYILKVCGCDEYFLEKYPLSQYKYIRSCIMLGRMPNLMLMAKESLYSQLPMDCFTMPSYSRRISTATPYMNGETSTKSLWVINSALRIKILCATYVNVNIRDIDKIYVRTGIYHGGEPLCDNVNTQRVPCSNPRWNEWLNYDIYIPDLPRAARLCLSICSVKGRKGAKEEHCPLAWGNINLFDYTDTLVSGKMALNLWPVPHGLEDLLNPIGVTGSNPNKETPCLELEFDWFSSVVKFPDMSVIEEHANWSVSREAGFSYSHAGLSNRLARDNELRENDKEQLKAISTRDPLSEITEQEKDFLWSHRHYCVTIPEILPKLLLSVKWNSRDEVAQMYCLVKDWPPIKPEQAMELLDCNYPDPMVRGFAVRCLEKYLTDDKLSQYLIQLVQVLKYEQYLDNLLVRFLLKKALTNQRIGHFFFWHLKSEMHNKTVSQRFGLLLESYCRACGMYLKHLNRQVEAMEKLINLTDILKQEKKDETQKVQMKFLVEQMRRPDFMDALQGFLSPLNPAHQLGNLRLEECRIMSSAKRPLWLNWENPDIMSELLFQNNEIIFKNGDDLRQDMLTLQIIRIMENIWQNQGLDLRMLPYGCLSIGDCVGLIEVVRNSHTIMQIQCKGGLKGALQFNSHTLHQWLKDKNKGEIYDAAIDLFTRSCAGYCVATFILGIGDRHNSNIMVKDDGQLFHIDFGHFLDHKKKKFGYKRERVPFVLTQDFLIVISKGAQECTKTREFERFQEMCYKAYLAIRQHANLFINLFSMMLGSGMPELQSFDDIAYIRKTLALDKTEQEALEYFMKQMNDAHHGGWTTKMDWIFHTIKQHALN
PI3Kalpha, sequence (P27986 whole entry partner, canonical isoform): as the sequence (P27986 whole entry partner, canonical isoform) above

With `CC[C@H](Nc1ncnc2c1nc(-c1cnc(C)nc1)n2CC)C(=O)N1CCSC1C` (mixture of isomers) [Compound 2-24, 9-ethyl-8-(2-methylpyrimidin-5-yl)-N-{(1S)-1-[((S and R)-2-methyl-1,3-thiazolidin-3-yl)carbonyl]propyl}-9H-purin-6-amine], the “Selectivity versus PI3Kalpha” value on PI3Kalpha is given as more than 10. Also, on PI3Kdelta, the IC50 (in general, the point on the concentration scale where inhibition reaches its midpoint) was determined as 27 nM.

With `CCn1c(-c2cnc(C)nc2)nc2c(N[C@@H](C)CC(=O)N3CCCC3)ncnc21` [Compound 2-59, 9-ethyl-N-[(1S)-1-methyl-3-oxo-3-pyrrolidin-1-ylpropyl]-8-(2-methylpyrimidin-5-yl)-9H-purin-6-amine], the “Selectivity versus PI3Kalpha” value on PI3Kalpha was more than 10. Inhibition against PI3Kdelta was half-maximal at 63 nM (IC50).

`CC[C@H](Nc1ncnc2c1nc(-c1cnc(C)nc1)n2CC)C(=O)N1C[C@@H](C)O[C@@H](C)C1` [Compound 2-6, N-[(1S)-1-{[(cis)-2,6-dimethylmorpholin-4-yl]carbonyl}propyl]-9-ethyl-8-(2-methylpyrimidin-5-yl)-9H-purin-6-amine]: at PI3Kalpha, the “Selectivity versus PI3Kalpha” value is reported as more than 10. The same compound yielded an IC50 on PI3Kdelta of 6.1 nM.

Consider `CCn1c(-c2cnc(C)nc2)nc2c(NC[C@H](C)C(=O)N3C[C@@H](C)O[C@@H](C)C3)ncnc21` [Compound 2-54, N-{(2S)-3-[(cis)-2,6-dimethylmorpholin-4-yl]-2-methyl-3-oxopropyl}-9-ethyl-8-(2-methylpyrimidin-5-yl)-9H-purin-6-amine], for which, on PI3Kalpha, the “Selectivity versus PI3Kalpha” value is recorded as more than 10. At PI3Kdelta, this compound had an IC50 of 250 nM.

Turning to `CCn1c(-c2cnc(C)nc2)nc2c(N[C@H](C(=O)N3C[C@@H](C)O[C@@H](C)C3)C3CCCC3)ncnc21` [Compound 2-48, N-{(1S)-1-cyclopentyl-2-[(cis)-2,6-dimethylmorpholin-4-yl]-2-oxoethyl}-9-ethyl-8-(2-methylpyrimidin-5-yl)-9H-purin-6-amine], at PI3Kalpha, the “Selectivity versus PI3Kalpha” value is on record as more than 10. On PI3Kdelta, this compound registered an IC50 of 55 nM.

Turning to `CC[C@H](Nc1ncnc2c1nc(-c1cnc(C)nc1)n2CC)C(=O)N1CCCC(F)(F)C1` [Compound 2-12, N-{(1S)-1-[(3,3-difluoropiperidin-1-yl)carbonyl]propyl}-9-ethyl-8-(2-methylpyrimidin-5-yl)-9H-purin-6-amine], the “Selectivity versus PI3Kalpha” value at PI3Kalpha is more than 10. Further, the IC50 on PI3Kdelta was found to be 11 nM.

For the compound `CCn1c(-c2cnc(C)nc2)nc2c(N[C@H](C(=O)N3C[C@@H](C)O[C@@H](C)C3)C(C)C)ncnc21` [Compound 2-49, N-[(1S)-1-{[(cis)-2,6-dimethylmorpholin-4-yl]carbonyl}-2-methylpropyl]-9-ethyl-8-(2-methylpyrimidin-5-yl)-9H-purin-6-amine], the “Selectivity versus PI3Kalpha” value on PI3Kalpha is reported as more than 10. For the same compound, at PI3Kdelta, the IC50 was determined as 4.1 nM.

For `CC[C@H](Nc1ncnc2c1nc(-c1cnc(C)nc1)n2CC)C(=O)N1CC(OC)C1` [Compound 2-17, 9-ethyl-N-{(1S)-1-[(3-methoxyazetidin-1-yl)carbonyl]propyl}-8-(2-methylpyrimidin-5-yl)-9H-purin-6-amine], at PI3Kalpha, the “Selectivity versus PI3Kalpha” value is reported as more than 10. On PI3Kdelta, this compound gave a 50% inhibitory concentration (IC50) of 74 nM.

Take `CC[C@H](Nc1ccnc2c1nc(-c1cnc(C)nc1)n2CC)C(=O)N1C[C@@H](C)O[C@@H](C)C1` [Compound 3-1, N-[(1S)-1-{[(cis)-2,6-dimethylmorpholin-4-yl]carbonyl}propyl]-3-ethyl-2-(2-methylpyrimidin-5-yl)-3H-imidazo[4,5-b]pyridin-7-amine]: the “Selectivity versus PI3Kalpha” value on PI3Kalpha is given as more than 10. In addition, the IC50 against PI3Kdelta was determined as 17 nM.

On to `CCn1c(C(F)F)nc2c(N[C@@H](C)C(=O)N3C[C@@H](C)O[C@@H](C)C3)ncnc21` [Compound 2-5, 8-(difluoromethyl)-N-{(1S)-2-[(cis)-2,6-dimethylmorpholin-4-yl]-1-methyl-2-oxoethyl}-9-ethyl-9H-purin-6-amine], for which, on PI3Kalpha, the “Selectivity versus PI3Kalpha” value is listed as more than 10. At PI3Kdelta, this compound gave a half-inhibitory concentration (IC50) of 230 nM.

For the compound `CC[C@H](Nc1ncnc2c1nc(-c1cnc(C)nc1)n2CC)C(=O)N1C[C@@H](C)C(F)(F)[C@@H](C)C1` [Compound 4-4, N-[(1S)-1-{[cis-4,4-difluoro-3,5-dimethylpiperidin-1-yl]carbonyl}propyl]-9-ethyl-8-(2-methylpyrimidin-5-yl)-9H-purin-6-amine], the “Selectivity versus PI3Kalpha” value at PI3Kalpha was more than 10. Besides, the IC50 at PI3Kdelta was 4.8 nM.

Regarding `CCC(Nc1ncnc2c1nc(-c1cnc(C)nc1)n2CC)C(=O)N1CCn2c(CC(C)C)nnc2C1` (single isomer, unassigned) [Compound 5-1, (S or R)-9-ethyl-N-(1-{[3-(2-methylpropyl)-5,6-dihydro[1,2,4]triazolo[4,3-a]pyrazin-7(8H)-yl]carbonyl}propyl)-8-(2-methylpyrimidin-5-yl)-9H-purin-6-amine], on PI3Kalpha, the “Selectivity versus PI3Kalpha” value was more than 10. This compound also had an IC50 against PI3Kdelta of 38 nM.

Take `CC[C@H](Nc1ncnc2c1nc(-c1cnc(C)nc1)n2CC)C(=O)N1CCOCC1(C)C` [Compound 2-34, N-{(1S)-1-[(3,3-dimethylmorpholin-4-yl)carbonyl]propyl}-9-ethyl-8-(2-methylpyrimidin-5-yl)-9H-purin-6-amine]: the “Selectivity versus PI3Kalpha” value on PI3Kalpha is reported as more than 10. 12 nM corresponded to half-maximal inhibition on PI3Kdelta (IC50).

Regarding `CC[C@H](Nc1ncnc2c1nc(-c1cnc(C)nc1)n2CC)C(=O)N1CCC(OCCOC)CC1` [Compound 2-10, 9-ethyl-N-[(1S)-1-{[4-(2-methoxyethoxy)piperidin-1-yl]carbonyl}propyl]-8-(2-methylpyrimidin-5-yl)-9H-purin-6-amine], the “Selectivity versus PI3Kalpha” value at PI3Kalpha was more than 10. The IC50 against PI3Kdelta is 62 nM.

Take `CCn1c(-c2cnc(C)nc2)nc2c(N[C@H](C(=O)N3C[C@@H](C)O[C@@H](C)C3)c3ccccc3)ncnc21` [Compound 2-43, N-{(1S)-2-[(cis)-2,6-dimethylmorpholin-4-yl]-2-oxo-1-phenylethyl}-9-ethyl-8-(2-methylpyrimidin-5-yl)-9H-purin-6-amine]: the “Selectivity versus PI3Kalpha” value on PI3Kalpha is reported as more than 10. In addition, half-maximal inhibition against PI3Kdelta (IC50) required 87 nM.

On to `CCn1c(-c2cnc(C)nc2)nc2c(N[C@@H](CC(C)C)C(=O)N3C[C@@H](C)O[C@@H](C)C3)ncnc21` [Compound 2-44, N-[(1S)-1-{[(cis)-2,6-dimethylmorpholin-4-yl]carbonyl}-3-methylbutyl]-9-ethyl-8-(2-methylpyrimidin-5-yl)-9H-purin-6-amine], for which the “Selectivity versus PI3Kalpha” value on PI3Kalpha is on record as more than 10. The compound further showed an IC50 against PI3Kdelta of 140 nM.
